Assay results as given in US8158442B2, “Antagonists of bitter taste receptors and uses thereof” (Deutsches Institut Fuer Ernaehrungsforschung …, priority 2007, dated 2012).

Key:
TAS2R38 [1] = molecular target: T1, TAS2R38 (Homo sapiens, UniProt P59533, A49P/I296V); test: Calcium imaging (FLIPR) of TAS2R38 transfected cells, antagonists applied as mixture with TAS2R38 agonists; assay type: cell-based; details: for inhibition of the responses of TAS2R38 agonists: mixture with 0.03 mM PROP, 0.03 mM PTC or 1 mM MET, 20 mM DMTU, 5 mM DETU or 0.1 mM MBI, FIG. 3
T1 construct: expressed in transfected cells; host or cells: HEK-293T cells stably expressing the chimeric G-protein subunit G16gust44
T1 sequence (P59533 1-333 A49P/I296V): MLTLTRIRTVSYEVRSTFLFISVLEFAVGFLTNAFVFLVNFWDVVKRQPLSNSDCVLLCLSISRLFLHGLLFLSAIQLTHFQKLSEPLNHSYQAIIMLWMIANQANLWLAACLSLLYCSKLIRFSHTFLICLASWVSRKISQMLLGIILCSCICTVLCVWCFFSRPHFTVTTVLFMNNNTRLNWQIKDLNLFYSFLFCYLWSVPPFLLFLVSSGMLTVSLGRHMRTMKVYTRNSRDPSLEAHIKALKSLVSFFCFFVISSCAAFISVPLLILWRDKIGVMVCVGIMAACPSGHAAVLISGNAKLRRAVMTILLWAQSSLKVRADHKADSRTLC
Source text: (§1) Human TAS2R38 cDNAs encoding the PAV form of the receptor was fused with a plasma membrane-targeting sequence of the rat somatostatin type 3 receptor at the N terminus of the recombinant polypeptide and a herpes simplex virus glycoprotein D (HSV) epitope at its C terminus (Bufe B., et al. (2002) Nat Genet 32:397-401). The constructs were transiently transfected into human embryonic kidney (HEK)-293T cells that stably express the chimeric G-protein subunit G16gust44 (Ueda T., et al. (2003) J Neurosci 23:7376-7380) using Lipofectamine 2000 (Invitrogen). They were then seeded at a density of ˜20-30% and transfected at ˜60% confluency in 96-well microtiter plate (Greiner) coated with 10 μg/ml Poly-D-lysine (Sigma-Aldrich). Calcium imaging experiments using an automated fluorometric imaging plate reader (FLIPR) (Molecular Devices) have been performed 24-32 h later essentially as described previously (Bufe B., et al. (2005) Curr. Biol. 15, 322-327). Tastants (Sigma-Aldrich) were dissolved and administered in the following solution: 130 mM NaCl, 5 mM KCl, 10 mM HEPES, 2 mM CaCl2, and 10 mM glucose, pH 7.4. Data were averaged over several independent experiments and processed with SigmaPlot (SPSS). For calculation of dose-response curves, the peak fluorescence responses after addition of compounds were corrected for and normalized to background fluorescence (ΔF/F=(F−F0)/F0), and baseline noise was subtracted.
To test whether dimethylthiourea, diethylthiourea and mercaptobenzimidazole are capable of inhibiting the response of other TAS2R38 agonists we next tested them as mixtures with the structurally divergent TAS2R38 agonists propylthiouracil, phenylthiourea and methimidazole.
To further investigate the mechanism of the inhibition of TAS2R38 we examined the effect of increasing diethylthiourea concentrations on the dose response curves of propylthiouracil and phenylthiourea (FIG. 5). […] Thus, the likeliest explanation for the observed right shift in the EC50 values caused by negative cooperativity of the inhibitor binding site on the agonist binding site of PROP and PTC.

mTas2r5 = molecular target: T2, mTas2r5 (Mus musculus, UniProt Q9JKT4); test: Calcium imaging of mTas2r5 transfected cells stimulated with cycloheximide, specificity test; assay type: cell-based, murine; details: 10 mM DMTU, 5 mM DETU or 0.1 mM MBI, FIG. 4
T2 construct: expressed in transfected cells
T2 sequence (Q9JKT4 1-300): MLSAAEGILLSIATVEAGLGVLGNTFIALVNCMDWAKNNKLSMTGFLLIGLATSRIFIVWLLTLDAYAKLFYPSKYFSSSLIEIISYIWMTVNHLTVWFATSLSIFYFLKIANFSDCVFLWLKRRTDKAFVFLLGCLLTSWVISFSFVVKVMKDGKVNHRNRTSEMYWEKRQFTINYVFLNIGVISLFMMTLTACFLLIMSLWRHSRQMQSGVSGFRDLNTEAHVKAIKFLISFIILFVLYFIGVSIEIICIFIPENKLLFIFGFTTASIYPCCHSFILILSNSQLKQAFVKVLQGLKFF
Source text: as §1
(§2) In contrast to the observed effects on TAS2R38, the response of cells expressing hTAS2R16 or mTas2r5 to their cognate ligands salicin or cycloheximide was not altered by any of the three TAS2R38 antagonists in concentrations that inhibited response of TAS2R38 (FIG. 4).

TAS2R38 [2] = molecular target: T1, TAS2R38; test: Calcium imaging (FLIPR) of TAS2R38-PAV transfected HEK-293T G16gust44 cells, activation by compound alone; assay type: cell-based
Source text: as §1
During the structure-function-analysis of TAS2R38 agonists we identified and tested various compounds that contain an N—C═S moiety, which is a hallmark of TAS2R38 agonists. […] Two other compounds, dimethylthiourea and mercaptobenzimidazole that also have an N—C═S moiety (FIG. 1) could activate the receptor only at low to concentrations (EC50 of 0.5 mM for dimethylthiourea and 1.0 μM for mercaptobenzimidazole). Application of dimethylthiourea in concentrations above 3 mM led to a dose dependant reduction of the signal amplitude (FIG. 2).

hTAS2R16 = molecular target: T3, hTAS2R16 (Homo sapiens, UniProt Q9NYV7); test: Calcium imaging of hTAS2R16 transfected cells stimulated with salicin, specificity test; assay type: cell-based; details: 10 mM DMTU, 5 mM DETU or 0.1 mM MBI, FIG. 4
T3 construct: expressed in transfected cells
T3 sequence (Q9NYV7 1-291): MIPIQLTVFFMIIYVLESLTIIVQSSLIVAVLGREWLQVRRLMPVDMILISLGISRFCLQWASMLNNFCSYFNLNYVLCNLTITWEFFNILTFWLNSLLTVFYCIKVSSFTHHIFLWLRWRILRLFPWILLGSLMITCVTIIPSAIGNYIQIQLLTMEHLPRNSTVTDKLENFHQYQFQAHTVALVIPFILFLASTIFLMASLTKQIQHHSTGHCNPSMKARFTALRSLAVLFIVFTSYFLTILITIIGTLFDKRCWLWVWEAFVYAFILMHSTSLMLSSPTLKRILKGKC
Source text: as §1, §2

[3] = TAS2R38-PAV transfected cells, compound alone, FIG. 2, read-out: EC50 (activation of the receptor)

Row | Structure (SMILES) | effect on signal amplitudes of the agonists (TAS2R38 [1]; increasing diethylthiourea concentrations, not abolished by increasing agonist concentrations) | inhibition of the responses of TAS2R38 agonists (TAS2R38 [1]) | effect on response of mTas2r5 expressing cells to cycloheximide (mTas2r5) | activation of the receptor (TAS2R38 [2]; TAS2R38-PAV transfected cells, compound alone, FIG. 2) | effect on response of hTAS2R16 expressing cells to salicin (hTAS2R16) | concentrations at which the compound acts as agonist of hTAS2R38 (TAS2R38 [2]) | EC50 (TAS2R38 [2]; [3]) [µM] | concentrations that pronouncedly reduced the response of TAS2R38 receptor expressing cells (TAS2R38 [2]; compound alone, FIG. 2) | concentrations leading to a dose dependant reduction of the signal amplitude (TAS2R38 [2]; TAS2R38 expressing cells, compound alone, FIG. 2) | EC50 (TAS2R38 [1]; EC50 (result obtained for propylthiouracil), +0.25 mM diethylthiourea) [µM] | EC50 (TAS2R38 [1]; EC50 (result obtained for propylthiouracil), +0.5 mM diethylthiourea) [µM] | EC50 (TAS2R38 [1]; EC50 of phenylthiourea, +0.25 mM diethylthiourea) [µM] | EC50 (TAS2R38 [1]; EC50 of phenylthiourea, +0.5 mM diethylthiourea) [µM] | EC50 (TAS2R38 [2]; EC50 (result obtained for propylthiouracil), alone, TAS2R38 transfected cells, FIG. 5) [µM] | EC50 (TAS2R38 [2]; EC50 of phenylthiourea, alone, TAS2R38 transfected cells, FIG. 5) [µM]
1 | CCNC(=S)NCC [diethylthiourea, N,N′-diethylthiourea] | pronounced reduction of the signal amplitudes | inhibited the responses of all tested agonist | not altered | did not activate the receptor at any tested concentration | not altered |  |  |  |  |  |  |  |  |  | 
2 | Sc1nc2ccccc2[nH]1 [mercaptobenzimidazole, 2-mercaptobenzimidazole] |  | inhibited the responses of all tested agonist | not altered |  | not altered | below 0.01 mM | 1 | above 10 μM |  |  |  |  |  |  | 
3 | CNC(=S)NC [dimethylthiourea, N,N′-dimethylthiourea] |  | inhibited the responses of all tested agonist | not altered |  | not altered | below 3 mM | 500 |  | above 3 mM |  |  |  |  |  | 
4 | NC(=S)Nc1ccccc1 [phenylthiourea, phenylthiocarbamide, reference compound] |  |  |  |  |  |  |  |  |  | 3.4 ± 2.5 | 6.3 ± 3.9 | 2.8 ± 0.8 | 4.8 ± 1.8 | 1.1 ± 0.8 | 1.4 ± 0.9
